Data on one substance can be found in PMC8962522, “Direct interaction of TrkA/CD44v3 is essential for NGF-promoted aggressiveness of breast cancer cells” (Journal of Experimental & Clinical Cancer Research : CR, 2022).

The subject of assay [1] is CD44v6 in MDA-MB-231 cells. Briefly: Flow cytometry, plasma membrane CD44v6. It counts as cell-based. The following applies: MDA-MB-231, flow cytometry. From the text: The CD44v3- and CD44v6-containing isoforms expressing respectively exon 8 and 11(Fig. 1A) can interact with growth factor receptors. Using COS-7 cells with low CD44 and TrkA expression (Supplementary Fig. 1A-D), we differentially expressed TrkA and CD44s or a CD44 variant, either CD44v3 or CD44v6 (Fig. 1B, supplementary Fig. 2). […] Additionally, we evaluated the expression of TrkA and CD44v3 at the membrane level or in cells by immunofluorescence in MDA-MB-231 cells.
Supplementary file 13046_2022_2314_MOESM3_ESM.pdf: Additional file 3: Supplementary Figure 1. Validation of the ectopic expression of CD44 and/or TrkA in COS-7 cells. The expression of all CD44 isoforms (A), CD44 variant 3 (B), CD44 variant 6 (C) and TrkA ([…]; D) was evaluated by RT–qPCR (normalized using PUM-1). No expression of CD44, CD44 variants [3 or 6] or TrkA was detected in COS-7 cells (A-D) compared with that in cells transfected with the expression plasmid carrying each protein. […] Quantification of the PLA results was performed using ImageJ software (30 randomly chosen fields per condition of three different experiments). […] CD44v3 and CD44v6 levels at the plasma membrane were assessed by flow cytometry (A-D). The plasma membrane and total TrkA and CD44v3 levels were also quantified by confocal microscopy (E-H). […] The CD44v3/NGF interaction was evaluated using microscale thermophoresis (MST). […]

Assay [2] deals with TrkA/CD44v3 complex in SUM159-PT cells. Briefly: PLA TrkA/CD44v3 complex formation in SUM159-PT cells. It counts as cell-based. The note with it: triple negative; NGF 100 ng/ml. On the procedure:
Cells (10,000 cells per well) were grown on acid-washed eight-well glass slides (Thermo Scientific) in the appropriate medium supplemented with 10% FBS for 24 h. After NGF treatment, paraformaldehyde (PAF)-fixed cells were incubated with 4% bovine serum albumin (BSA) or 5% FBS (for 1 h at 20 °C), followed by overnight incubation with primary antibodies (rabbit anti-TrkA or rabbit anti-IgG + mouse anti-pan-CD44; mouse anti-CD44v3; mouse anti-CD44v6; mouse anti-IgG2a; mouse anti-IgG2b; or mouse anti-IgG1). PLA was performed following the manufacturer’s instructions in the assay kit (Duolink PLA; Sigma–Aldrich). To obtain the correct representation of the PLA signal for each condition, 30 fields per condition were observed using a fluorescence microscope (Eclipse TiU; Nikon, Japan). The PLA signals (red dots) were automatically quantified using ImageJ software (with an in-house-developed plug-in). […]
Fig. 7 The TrkA/CD44v3 complex is formed in PR-negative breast cancer cells and tumors. TrkA/CD44v3 complex formation was measured in SUM159-PT (triple negative—i.e., ERα-, PR-, and Her2-) cells (A), T47-D (luminal A—i.e., ERα+, PR+, and Her2-) cells (B), BT-474 (luminal B—ERα+, PR+, and Her2+) cells (C), HCC-1954 (Her2-like—ERα-, PR-, and Her2+) cells (D), and 150 tumor patient samples obtained from US BioMax (HBre-Duc150Sur01) (E, F) using the proximity ligation assay (PLA). […]

For the substance “NGF: recombinant human β-NGF (Alomone Labs, Israel)”, in assay [1] (CD44v6-APC, histogram with No stim., NGF (5 min), NGF (30 min)), the “increase of plasma membrane CD44v6” value worked out at 6%. For the same substance, the “plasma membrane level of CD44v6 (in words)” value in assay [1] (NGF stimulation) is given as “increased the plasma membrane level of CD44v3 but not CD44v6”. For the same substance, the “effect on TrkA/CD44v3 complex formation (PLA) in SUM159-PT cells” value in assay [2] is “NGF induction of CD44v3/TrkA complex formation was observed in SUM-159PT (TN) and HCC-1954 (Her2) cells”.
